# Reference: PubChem BioAssay (NCI)
#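 Test compounds were applied to cells in 96-well plates for 48 hours at 5 doses. At the TGI there is no net growth.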
# Assays:
# Assay in all cases: inhibition of tumour cell growth, NCI panel, 48 h
# MCF7 breast = test system: MCF7 breast
# LOX IMVI melanoma = test system: LOX IMVI melanoma
# KM12 colon = test system: KM12 colon
# T-47D breast = test system: T-47D breast
# OVCAR-8 ovarian = test system: OVCAR-8 ovarian
# TK-10 renal = test system: TK-10 renal
# RPMI-8226 leukemia = test system: RPMI-8226 leukemia
# UO-31 renal = test system: UO-31 renal
# 786-0 renal = test system: 786-0 renal
# IGROV1 ovarian = test system: IGROV1 ovarian
# SNB-75 CNS = test system: SNB-75 CNS
# HOP-92 NSCLC = test system: HOP-92 NSCLC
# SK-MEL-5 melanoma = test system: SK-MEL-5 melanoma
# HT29 colon = test system: HT29 colon
# HCC-2998 colon = test system: HCC-2998 colon
# NCI-H522 lung = test system: NCI-H522 lung
# OVCAR-4 ovarian = test system: OVCAR-4 ovarian
# A549 NSCLC = test system: A549 NSCLC
SMILES,TGI (MCF7 breast) [µM],TGI (LOX IMVI melanoma) [µM],TGI (KM12 colon) [µM],TGI (T-47D breast) [µM],TGI (OVCAR-8 ovarian) [µM],TGI (TK-10 renal) [µM],TGI (RPMI-8226 leukemia) [µM],TGI (UO-31 renal) [µM],TGI (786-0 renal) [µM],TGI (IGROV1 ovarian) [µM],TGI (SNB-75 CNS) [µM],TGI (HOP-92 NSCLC) [µM],TGI (SK-MEL-5 melanoma) [µM],TGI (HT29 colon) [µM],TGI (HCC-2998 colon) [µM],TGI (NCI-H522 lung) [µM],TGI (OVCAR-4 ovarian) [µM],TGI (A549 NSCLC) [µM]
CCN(CC)C(=S)/N=C(\SC(=S)N(CC)CC)c1ccccc1,> 100,36.1,> 44.1,> 100,> 100,> 100,> 96.1,> 88.2,> 100,> 100,> 100,> 100,> 100,> 100,> 100,3.39,> 100,> 100
CC1(C)CCCC2CC2CCC(C)(C)C1=O (stereo unspecified),75.8,> 100,> 100,> 100,> 100,> 100,68.1,> 100,86.6,> 100,> 100,> 100,> 100,> 100,21.7,> 100,> 100,> 100
COc1ccc(Cc2cc(OC)c(OC)c(OC)c2)cc1,> 100,> 89.7,> 100,89.8,27,> 100,39.1,90.5,> 100,> 100,> 18.5,85.6,21.2,8.25,1.4,0.798,> 100,> 100
CC(C)(C)C(O)CC(O)(C(F)(F)F)C(F)(F)F (stereo unspecified),> 100,> 100,> 100,> 100,> 100,> 100,> 100,> 100,> 100,> 100,> 100,> 100,> 100,> 100,> 100,> 100,> 100,> 100
COc1ccc(C(=O)N2CCN(c3ccc4c(c3)OCC(=O)N4)CC2)cc1OC,> 100,> 100,> 100,> 100,> 100,> 100,> 100,> 100,> 100,> 100,> 100,> 100,> 100,> 100,> 100,> 100,> 100,> 100
Clc1cc2nc(C3CCCCO3)[nH]c2cc1Cl (stereo unspecified),36.5,> 100,> 56.9,> 93.9,> 73,> 100,> 73.4,> 53.3,> 91.9,> 100,58.4,> 100,> 100,25.8,96.9,18.5,> 100,> 100
O=C(CC(Cc1ccccc1)c1ccc(Oc2ccccc2)cc1)Nc1cccc(Cl)c1 (stereo unspecified),18.3,49.2,> 100,8.49,> 100,> 100,17.3,> 100,> 100,16.3,56.6,5.51,26.8,> 100,31.8,26.5,> 100,> 100
